Source: PubChem BioAssay (NCI)
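Five concentrations, 48 hours, 96-well plates. GI50 = concentration required for 50% inhibition of growth. TGI denotes the concentration required for complete inhibition of growth.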

Columns and labels:
Experiment in all cases: NCI tumour cell line growth inhibition, 48 h
HT29 colon = test system: HT29 colon
NCI-H23 lung = test system: NCI-H23 lung
SK-MEL-28 melanoma = test system: SK-MEL-28 melanoma
BT-549 breast = test system: BT-549 breast
T-47D breast = test system: T-47D breast
M14 melanoma = test system: M14 melanoma
SW-620 colon = test system: SW-620 colon
SR leukemia = test system: SR leukemia
SF-268 CNS = test system: SF-268 CNS
EKVX NSCLC = test system: EKVX NSCLC
MOLT-4 leukemia = test system: MOLT-4 leukemia
RXF 393 renal = test system: RXF 393 renal
HOP-92 NSCLC = test system: HOP-92 NSCLC
LOX IMVI melanoma = test system: LOX IMVI melanoma
HCT-15 colon = test system: HCT-15 colon
MALME-3M melanoma = test system: MALME-3M melanoma
U251 CNS = test system: U251 CNS
SNB-75 CNS = test system: SNB-75 CNS
ACHN renal = test system: ACHN renal
RPMI-8226 leukemia = test system: RPMI-8226 leukemia
CCRF-CEM leukemia = test system: CCRF-CEM leukemia
UACC-62 melanoma = test system: UACC-62 melanoma
OVCAR-4 ovarian = test system: OVCAR-4 ovarian
A549 NSCLC = test system: A549 NSCLC
OVCAR-3 ovarian = test system: OVCAR-3 ovarian
UO-31 renal = test system: UO-31 renal
NCI/ADR-RES ovarian = test system: NCI/ADR-RES ovarian
DU-145 prostate = test system: DU-145 prostate

Clc1ccc2c(c1)C(N1CCNCC1)=Nc1ccccc1O2
GI50 (HT29 colon): 1720 nM
TGI (HT29 colon): 4190 nM
GI50 (NCI-H23 lung): 3460 nM
TGI (NCI-H23 lung): 14300 nM
GI50 (SK-MEL-28 melanoma): 1610 nM
TGI (SK-MEL-28 melanoma): 2960 nM
GI50 (BT-549 breast): 2420 nM
TGI (BT-549 breast): 10200 nM
GI50 (T-47D breast): 1910 nM
TGI (T-47D breast): 4580 nM
GI50 (M14 melanoma): 1680 nM
TGI (M14 melanoma): 3070 nM
GI50 (SW-620 colon): 1620 nM
TGI (SW-620 colon): 3150 nM
GI50 (SR leukemia): 1660 nM
TGI (SR leukemia): 4300 nM
GI50 (SF-268 CNS): 2650 nM
TGI (SF-268 CNS): 11800 nM
GI50 (EKVX NSCLC): 3470 nM
TGI (EKVX NSCLC): 17400 nM
GI50 (MOLT-4 leukemia): 1820 nM
TGI (MOLT-4 leukemia): 4190 nM
GI50 (RXF 393 renal): 1220 nM
TGI (RXF 393 renal): 2770 nM
GI50 (HOP-92 NSCLC): 374 nM
TGI (HOP-92 NSCLC): 2800 nM
GI50 (LOX IMVI melanoma): 1540 nM
TGI (LOX IMVI melanoma): 2870 nM
GI50 (HCT-15 colon): 3260 nM
TGI (HCT-15 colon): 11700 nM
GI50 (MALME-3M melanoma): 1750 nM
TGI (MALME-3M melanoma): 3500 nM
GI50 (U251 CNS): 1510 nM
TGI (U251 CNS): 2990 nM
GI50 (SNB-75 CNS): 1130 nM
TGI (SNB-75 CNS): 2790 nM
GI50 (ACHN renal): 1970 nM
TGI (ACHN renal): 4200 nM
GI50 (RPMI-8226 leukemia): 1960 nM
TGI (RPMI-8226 leukemia): 4930 nM
GI50 (CCRF-CEM leukemia): 1900 nM
TGI (CCRF-CEM leukemia): 4770 nM
GI50 (UACC-62 melanoma): 1630 nM
TGI (UACC-62 melanoma): 3100 nM
GI50 (OVCAR-4 ovarian): 2450 nM
TGI (OVCAR-4 ovarian): 8720 nM
GI50 (A549 NSCLC): 4500 nM
TGI (A549 NSCLC): 16900 nM
GI50 (OVCAR-3 ovarian): 2800 nM
TGI (OVCAR-3 ovarian): 10400 nM
GI50 (UO-31 renal): 1640 nM
TGI (UO-31 renal): 10600 nM
GI50 (NCI/ADR-RES ovarian): 1990 nM
TGI (NCI/ADR-RES ovarian): 5120 nM
GI50 (DU-145 prostate): 4180 nM
TGI (DU-145 prostate): 15400 nM
